Measured values as given in patent US6150366A, “Ziprasidone formulations” (Pfizer Inc., priority 1999, dated 2000).
Structures can show the parent of a compound that is named as a salt.

Assays:
[1] = cited from earlier work
[2] = cited from earlier work; remark: listed apart in the source
Solubility = format: physicochemical
[3] = Dissolution testing in USP-2 apparatus; format: physicochemical; settings: aqueous media, at or below 85 μm
Method: Usually the test result is established as an average for a pre-determined number of dosages (e.g., capsules, tablets, suspensions, or other dosage form), usually six. The dissolution media is typically maintained at 37° C. during the test. […] The amount of dissolved ziprasidone can be determined conventionally by HPLC, as hereinafter described.
A dosage form can be tested to assess its dissolution profile by dissolution testing it in a USP-2 apparatus. As previously described, the apparatus is implemented to contain 900 ml of 0.05 M NaH2 PO4 buffer, pH 7.5, containing 2% (w/w) sodium dodecyl sulfate. 1% pancreatin may be added if the dosage form being tested is a capsule, as previously noted. The pH can be adjusted as approprate using, for example, 5N NaOH or concentrated phosphoric acid. The USP-2 apparatus is equipped with paddles stirring at 75 rpm. […]
The amount of dissolved ziprasidone can be determined conventionally by HPLC. […] Quantification can be effected facilely by comparison of HPLC peak height (or area) with the peak height (or area) taken from a standard plot of concentration vs. peak height (or area) for standards of known concentration. As is conventional, the ziprasidone standard concentrations are selected to fall within a linear range of concentration vs absorbance for the UV detector employed.

solubility compared with the acid addition salt (Solubility; near-neutral pH) | solubility (Solubility; slurry in THF/water process) | Compound | aqueous solubility [1] | permeability [2] | dependence of dissolution rate on particle size [3]
– | – | O=C1Cc2cc(CCN3CCN(c4nsc5ccccc45)CC3)c(Cl)cc2N1 [ziprasidone hydrochloride] | relatively poor aqueous solubility | high permeability | –
much less soluble | low solubility | O=C1Cc2cc(CCN3CCN(c4nsc5ccccc45)CC3)c(Cl)cc2N1 [ziprasidone] | – | – | does not vary substantially with particle size
